Series [1] has as its system Klhl18 protein. Nature of the series: Inhibition of Klhl18-mediated degradation of Unc119 in transfected HEK293T cells, Western blotting. It counts as cell-based, mouse. On the procedure:
Retinal tissue was harvested from one month old Klhl18 KO mice and wild-type (C57BL/6J strain) mice (purchased from Japan SLC) according to the conventional method. The retinal tissue was dissolved in 2× sample buffer (0.1 M Tris-HCl (pH 6.8), 1% SDS, 5% β-mercaptoethanol, 10% glycerol, and 0.02% BPB) and heat-treated at 100° C. for 5 minutes. SDS-PAGE was performed and the separated proteins on the gel were electrically transferred to a PVDF membrane (Merck Millipore) at 12 V for 90 minutes. The PVDF membrane was blocked with blocking solution (5% skim milk and 0.05% Tween 20/TBS) with shaking at room temperature for 1 hour. The PVDF membrane was reacted with a primary antibody diluted in the blocking solution at 4° C. overnight. The primary antibody was anti-Unc119 antibody (mouse monoclonal, a gift from Dr. Haeseleer (University of Washington, USA) (Haeseleer, 2008), 1:10 dilution) or α-Tublin antibody (mouse monoclonal, Sigma, 1:6,000 dilution). After completion of reaction with the primary antibody, the PVDF membrane was washed three times with 0.05% Tween 20/TBS with shaking at room temperature for 10 minutes. The PVDF membrane was reacted with a secondary antibody diluted in the blocking solution at room temperature for 1 hour. The secondary antibody was anti-mouse IgG (H+L) HRP-conjugated antibody (goat polyclonal, Zymed, 1:6,000 dilution). After completion of reaction with the secondary antibody, the PVDF membrane was again washed three times with 0.05% Tween 20/TBS with shaking at room temperature for […]. The PVDF membrane was reacted with chemiluminescent reagent (Chemi-Lumi One (Nacalai Tesque)) or Pierce Western Blotting Substrate Plus (Thermo Fisher Scientific). The membrane was exposed to an X-ray film, and the protein of interest was detected using a film processor.
The HEK293T cell line was cultured in DMEM (Wako Pure Chemical Industries) supplemented with antibiotics (penicillin (100 μg/mL)/streptomycin (100 μg/mL)) and 10% FBS at 37° C. under 5% CO2. […]
In general terms: A western blot detects proteins with antibodies after separation by electrophoresis.

Series [2] deals with BALB/c mice. Description: Light-induced damage in mice, electroretinogram (ERG) recording. The class given is in vivo, mouse. The note with it: 60 mg/kg subcutaneous; blue LED about 450 nm, about 7000 lux, 3 hours, cycle repeated for three days; ERG four days after final exposure; vs DMSO control (FIG. 24). On the procedure: Wild-type or Klhl18 KO mice of postnatal 2 months were light adapted or dark adapted. Light adaptation was performed at a light level of about 1000 lux for 1 hour or longer, and dark adaptation was performed by keeping the mice in a dark room for 4 hours or longer. Anesthesia was performed on dark-adapted or light-adapted mice with intraperitoneal injection of ketamine (100 mg/kg body weight per mouse) and xylazine (10 mg/kg body weight per mouse) in saline. Pupils were dilated with topical administration to the eyes with a mixture of 0.5% tropicamide and 0.5% phenylephrine HCl. ERG responses were measured with LED electrodes that emit a white flash (PuREC; Mayo Corporation). The mouse cornea was brought into contact with the electrodes, and stimulated with the stimulating flash using LED Visual Stimulator (LS-100, Mayo Corporation), and the ERG waves were recorded by TA-100 (Mayo Corporation) (FIGS. 7A and 8A). Strobe light stimulation with four levels of stimulus intensities ranging from −4.0 to 1.0 log cd−s/m^2 (−4.0, −3.0, −1.0 and 1 log cd−s/m^2) were used for the scotopic ERGs to measure the function of rod photoreceptor cells. […] From the wave data, a-waves and b-waves were quantified and expressed as the mean value±standard error. The photopic ERGs were recorded on a rod-suppressing white background of 1.3 log cd/m^2. […]

For series [3], the system named is BALB/c mice. Nature of the series: Light-induced damage in mice, fluorescence immunostaining of the retina. It counts as in vivo, mouse. Conditions: 60 mg/kg subcutaneous; blue light damage for three days; vs DMSO control (FIG. 25). The procedure:
Fluorescent immunostaining was performed using the mouse retinal sections. Specifically, the mouse retinal sections prepared in the same manner as in Example 2 (2) were washed twice with PBS, and blocked with blocking buffer (4% Normal donkey serum/0.1% Triton X-100/PBS) at room temperature for 1 hour. The sections were reacted with a primary antibody at 4° C. overnight. The sections were washed three times with PBS, and reacted with a secondary antibody at room temperature for 2 hours. The primary antibody was anti-Rhodopsin antibody (rhodopsin, rabbit polyclonal, Santa Cruz, 1:500 dilution) or anti-S-opsin antibody (S-opsin (blue cone opsin), goat polyclonal, Santa Cruz, 1:500 dilution). The secondary antibody was Alexa Flour 488-conjugated anti-rabbit antibody (Thermo Fisher Scientific, 1:500 dilution) or Cy3 antibody (Jackson ImmunoResearch Laboratories, 1:500 dilution). After completion of reaction with the secondary antibody, the specimens were washed three times with PBS and sealed in mounting medium. All fluorescence images were taken under a confocal laser scanning microscope (LSM 700, Carl Zeiss).
MLN4924 (Chemscene) (60 mg/kg) was subcutaneously injected into the back of 4-weeks-old BALB/c mice (Japan SLC) that were kept in a dark place for 7 hours to be adapted to darkness. […]

Series [4] has as its system BALB/c mice. Description: Light-induced damage in mice, thickness of the photoreceptor layer (toluidine blue staining). The class given is in vivo, mouse. Conditions: 60 mg/kg subcutaneous; blue light damage for three days; vs DMSO control (FIG. 26). On the procedure: Retinal sections of wild-type control mice and Klhl18 KO mice with light-induced damage were prepared in the same manner as in Example 2 (2). The mouse retinal sections were used to measure the thickness of the photoreceptor layer in the same manner as in Example 5. Specifically, the sections were washed with PBS and stained with 0.1% toluidine blue (Sigma)/PBS for 1 minute. The sections were washed three times with PBS, and sealed in mounting medium. The sealed specimens were observed under an upright microscope equipped with a differential interference contrast objective lens. The thickness of the photoreceptor layer was determined by measuring the distance from the optic nerve.
MLN4924 (Chemscene) (60 mg/kg) was subcutaneously injected into the back of 4-weeks-old BALB/c mice (Japan SLC) that were kept in a dark place for 7 hours to be adapted to darkness. Four hours later, the mice were placed in a box with four mirrored walls and a mirrored floor, and exposed to blue LED light. The wavelength of the light was about 450 nm, and the light reaching the mice was at about 7000 lux. After three hours of exposure to the blue light, the mice were kept in the normal environment for 10 hours. This cycle was repeated for three days. […]

Residues, ends and D or L forms follow the SMILES beside them. *: point of attachment. Cbz = O=C(OCc1ccccc1)*

For the molecule `CC(C)C[C@@H](C=O)NC(=O)[C@H](CC(C)C)NC(=O)[C@H](CC(C)C)NC(=O)OCc1ccccc1` [MG-132] (Cbz-Leu-Leu-Leu-aldehyde), the “degradation of the target protein Unc119 by the full-length Klhl18 protein” value in series [1] (HEK293T cells, MG-132 final concentration 10 μM, 6 hours, vs 0.1% DMSO (FIG. 11)) is on record as “inhibits degradation of the target protein Unc119 by the full-length Klhl18 protein”.
For `NS(=O)(=O)OC[C@@H]1C[C@@H](n2ccc3c(N[C@H]4CCc5ccccc54)ncnc32)C[C@@H]1O` [MLN4924], in series [2], the “electric amplitudes of the a-waves (photoreceptor cell activity)” value is “higher than those in the control mice” and the “electric amplitudes of the b-waves (bipolar cell activity)” value is “higher than those in the control mice”. Besides, in series [3], the “signal intensities and thickness of cone photoreceptor cells (markers: S-opsin and M-opsin)” value is given as “better retained as compared with those in the control mice”; the “signal intensities and thickness of rod photoreceptor cells (marker: rhodopsin)” value is on record as “better retained as compared with those in the control mice”. For the same molecule, the “degradation of the target Unc119 protein by the full-length Klhl18 protein” value in series [1] (HEK293T cells, MLN4924 final concentration 0.3 μM, 6 hours, vs 0.3% DMSO (FIG. 15)) is reported as “inhibits degradation of the target Unc119 protein by the full-length Klhl18 protein”. The “thickness of the photoreceptor layer in the retina” value in series [4] is “better maintained as compared with that of the control mice”.

B1: C-terminal protein (C-terminal 298 residues) of the mouse Klhl18 gene: C-terminal 298 residues of mouse Klhl18 protein, expressed from plasmid pCAG-N-3× FLAG-C-Klhl18; acts as dominant negative (protein)
chain: RTRPRCCTSIAGLIYAVGGLNSAGDSLNVVEVFDPIANRWEKCHPMTTARSRVGVAVVNGLLYAIGGYDGQLRLSTVEAYNPETDTWTRVGSMNSKRSAMGTVVLDGQIYVCGGYDGNSSLNSVETYSPETDKWTVVTPMSSNRSAAGVTVFEGRIYVSGGHDGLQIFSSVEHYNHHTATWHPAASMLNKRCRHGAASLGSKMFVCGGYDGSGFLSIAEMYSSVADQWCLIVPMHTRRSRVSLVASCGRLYAVGGYDGQSNLSSVEMYDPETDRWTFMAPMACHEGGVGVGCIPLLTI
modifications: left off: small tags and cut ends
notes: C-terminal 298 residues of mouse Klhl18 protein, expressed from plasmid pCAG-N-3× FLAG-C-Klhl18; acts as dominant negative
Take B1: the “degradation of the target protein Unc119 by the full-length Klhl18 protein” value in series [1] (HEK293T cells co-transfected with FLAG-Klhl18, FLAG-C-terminal Klhl18 and HA-Unc119 plasmids, anti-HA Western blot (FIG. 10)) was “inhibits degradation of the target protein Unc119 by the full-length Klhl18 protein”.

Source of the values: patent publication US11298396B2, “Agent for inhibiting or reducing light sensitivity” (Osaka University, priority 2017, dated 2022).
